Reference: PMC11748629, “Unidirectional MCM translocation away from ORC drives origin licensing” (Nature Communications, 2025)

Key:
Test in all cases: cryo-EM structure
MCM-Cdt1 complex [1] = test system: T1, MCM-Cdt1 complex; assay type: binding, Saccharomyces cerevisiae; details: OCCM-Mcm2RA complex on ARS1 DNA with ORC-Cdc6; 3 mM ATP added, Mg2+, pH 7.6, 30 C; all six MCM ATPase sites occupied, ADP assigned from density
T1 construct: gene MCM2; with Cell division cycle protein CDT1

MCM-Cdt1 complex [2] = test system: T1, MCM-Cdt1 complex; assay type: binding, Saccharomyces cerevisiae; details: OC1M-Mcm5RA complex (no Cdc6) on ARS1 DNA with ORC; 2 mM ATP added, Mg2+, pH 7.6, 30 C; sites Mcm5/2, 2/6, 6/4 and 4/7; conformers 1 and 2
ORC complex = molecular target: T2, ORC complex (Saccharomyces cerevisiae, UniProt P50874+P54784+P54790+P54791); assay type: binding; details: wild-type ORC in OCCM-Mcm2RA (sites Orc4-Orc1, Orc5-Orc4, Orc3-Orc5) and in OC1M-Mcm5RA (Orc5-Orc4, Orc3-Orc5); 2-3 mM ATP, Mg2+, pH 7.6, 30 C
T2 construct: gene ORC1; with Origin recognition complex subunit 2; Origin recognition complex subunit 6
T2 sequence (P54784 whole entry): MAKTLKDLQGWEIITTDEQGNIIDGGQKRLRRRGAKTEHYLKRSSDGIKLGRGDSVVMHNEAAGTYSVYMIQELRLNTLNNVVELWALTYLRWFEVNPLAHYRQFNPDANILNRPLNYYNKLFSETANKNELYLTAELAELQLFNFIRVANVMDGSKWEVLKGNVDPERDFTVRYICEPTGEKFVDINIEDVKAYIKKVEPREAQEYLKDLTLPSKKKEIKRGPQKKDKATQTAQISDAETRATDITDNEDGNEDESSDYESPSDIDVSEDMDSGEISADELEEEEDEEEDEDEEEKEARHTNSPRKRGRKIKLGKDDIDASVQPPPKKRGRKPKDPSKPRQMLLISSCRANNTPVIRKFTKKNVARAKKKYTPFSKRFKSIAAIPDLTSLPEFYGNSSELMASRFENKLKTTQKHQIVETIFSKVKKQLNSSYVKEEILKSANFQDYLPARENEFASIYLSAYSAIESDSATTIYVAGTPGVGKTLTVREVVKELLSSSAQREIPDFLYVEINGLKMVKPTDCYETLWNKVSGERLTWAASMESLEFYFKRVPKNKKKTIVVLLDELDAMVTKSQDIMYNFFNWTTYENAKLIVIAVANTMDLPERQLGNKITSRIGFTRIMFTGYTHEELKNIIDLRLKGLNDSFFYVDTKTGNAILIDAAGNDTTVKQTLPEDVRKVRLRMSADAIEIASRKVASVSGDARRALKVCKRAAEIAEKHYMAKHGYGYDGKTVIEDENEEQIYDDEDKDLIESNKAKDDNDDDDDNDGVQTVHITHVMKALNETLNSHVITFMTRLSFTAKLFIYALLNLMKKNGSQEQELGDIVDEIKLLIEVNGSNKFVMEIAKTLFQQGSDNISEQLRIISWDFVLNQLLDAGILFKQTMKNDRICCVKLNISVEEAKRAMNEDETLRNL
T2 sequence (P54790 2-616): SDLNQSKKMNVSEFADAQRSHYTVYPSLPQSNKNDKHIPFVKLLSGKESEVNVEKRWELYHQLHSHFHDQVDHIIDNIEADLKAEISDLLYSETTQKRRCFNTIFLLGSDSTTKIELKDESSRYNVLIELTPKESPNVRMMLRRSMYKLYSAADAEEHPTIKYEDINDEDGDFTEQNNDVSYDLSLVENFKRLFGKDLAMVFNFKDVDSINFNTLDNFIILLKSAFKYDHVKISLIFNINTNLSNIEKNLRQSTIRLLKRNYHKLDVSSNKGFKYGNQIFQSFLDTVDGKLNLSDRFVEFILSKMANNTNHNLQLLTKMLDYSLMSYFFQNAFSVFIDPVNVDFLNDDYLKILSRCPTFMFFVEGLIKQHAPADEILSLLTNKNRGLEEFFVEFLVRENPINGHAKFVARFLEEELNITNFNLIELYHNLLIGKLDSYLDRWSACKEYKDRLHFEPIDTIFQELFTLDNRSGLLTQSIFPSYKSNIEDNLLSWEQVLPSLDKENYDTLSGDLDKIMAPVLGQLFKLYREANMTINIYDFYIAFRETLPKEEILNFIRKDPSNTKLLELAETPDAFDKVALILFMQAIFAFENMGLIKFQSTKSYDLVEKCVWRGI
T2 sequence (P54791 whole entry): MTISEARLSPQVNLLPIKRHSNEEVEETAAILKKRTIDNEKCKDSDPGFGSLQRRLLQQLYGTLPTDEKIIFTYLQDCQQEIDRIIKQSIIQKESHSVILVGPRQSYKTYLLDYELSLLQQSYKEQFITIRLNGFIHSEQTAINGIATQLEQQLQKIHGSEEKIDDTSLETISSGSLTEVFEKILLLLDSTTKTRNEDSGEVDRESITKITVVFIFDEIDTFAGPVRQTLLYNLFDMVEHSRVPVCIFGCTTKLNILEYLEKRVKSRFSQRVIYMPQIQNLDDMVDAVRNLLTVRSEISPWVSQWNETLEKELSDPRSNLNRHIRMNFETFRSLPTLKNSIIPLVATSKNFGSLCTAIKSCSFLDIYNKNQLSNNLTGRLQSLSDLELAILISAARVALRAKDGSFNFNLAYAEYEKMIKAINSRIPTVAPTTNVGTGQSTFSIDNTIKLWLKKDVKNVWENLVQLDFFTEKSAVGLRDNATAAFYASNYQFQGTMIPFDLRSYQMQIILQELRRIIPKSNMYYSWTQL
T2 sequence (P50874 whole entry): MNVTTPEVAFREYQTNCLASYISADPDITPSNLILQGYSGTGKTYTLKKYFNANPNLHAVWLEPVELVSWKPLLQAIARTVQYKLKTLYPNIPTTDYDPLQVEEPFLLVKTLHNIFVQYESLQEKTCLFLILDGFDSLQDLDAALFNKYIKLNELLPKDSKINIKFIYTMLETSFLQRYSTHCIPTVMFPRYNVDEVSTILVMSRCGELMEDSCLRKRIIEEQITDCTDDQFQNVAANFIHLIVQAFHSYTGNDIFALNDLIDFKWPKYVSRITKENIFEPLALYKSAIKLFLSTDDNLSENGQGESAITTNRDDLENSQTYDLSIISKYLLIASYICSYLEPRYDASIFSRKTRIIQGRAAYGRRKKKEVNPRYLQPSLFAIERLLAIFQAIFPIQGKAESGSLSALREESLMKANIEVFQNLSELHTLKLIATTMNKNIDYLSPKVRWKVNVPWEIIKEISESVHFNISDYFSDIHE
T2 sequence (P32833 whole entry partner): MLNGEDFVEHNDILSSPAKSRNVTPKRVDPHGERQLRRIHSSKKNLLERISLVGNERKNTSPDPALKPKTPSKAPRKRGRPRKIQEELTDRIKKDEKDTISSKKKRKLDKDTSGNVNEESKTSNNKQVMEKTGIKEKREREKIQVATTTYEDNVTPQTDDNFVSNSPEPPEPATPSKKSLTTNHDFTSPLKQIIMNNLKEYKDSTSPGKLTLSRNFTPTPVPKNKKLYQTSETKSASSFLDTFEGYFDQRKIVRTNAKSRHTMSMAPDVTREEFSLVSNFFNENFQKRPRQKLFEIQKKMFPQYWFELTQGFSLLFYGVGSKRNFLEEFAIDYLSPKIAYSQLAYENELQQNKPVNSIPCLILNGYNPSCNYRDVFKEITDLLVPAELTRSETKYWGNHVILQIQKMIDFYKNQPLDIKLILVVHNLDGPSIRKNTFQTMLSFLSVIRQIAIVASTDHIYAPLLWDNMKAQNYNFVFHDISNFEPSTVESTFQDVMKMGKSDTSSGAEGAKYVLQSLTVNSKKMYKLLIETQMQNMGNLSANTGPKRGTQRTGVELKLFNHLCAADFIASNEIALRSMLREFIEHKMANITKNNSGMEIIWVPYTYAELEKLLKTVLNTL
T2 sequence (P38826 whole entry partner): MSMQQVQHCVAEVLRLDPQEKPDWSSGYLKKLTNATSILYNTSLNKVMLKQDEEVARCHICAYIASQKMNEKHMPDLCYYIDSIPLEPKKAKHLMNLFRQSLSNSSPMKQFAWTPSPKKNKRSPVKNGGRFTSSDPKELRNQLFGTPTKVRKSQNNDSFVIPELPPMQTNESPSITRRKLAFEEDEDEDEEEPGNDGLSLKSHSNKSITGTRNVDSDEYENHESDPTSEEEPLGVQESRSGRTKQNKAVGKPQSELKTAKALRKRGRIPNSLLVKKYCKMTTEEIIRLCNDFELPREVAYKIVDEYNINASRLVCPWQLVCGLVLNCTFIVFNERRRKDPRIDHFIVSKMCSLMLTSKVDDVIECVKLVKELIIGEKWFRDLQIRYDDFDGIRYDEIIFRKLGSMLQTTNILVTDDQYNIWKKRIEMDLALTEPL

Structure (SMILES)	cryo-EM structure (MCM-Cdt1 complex [1])	cryo-EM structure (MCM-Cdt1 complex [2])	cryo-EM structure (ORC complex)
Nc1ncnc2c1ncn2[C@@H]1O[C@H](COP(=O)(O)OP(=O)(O)O)[C@@H](O)[C@H]1O [ADP]	All six ATPase sites were identified as occupied, with ADP modelled based on the density	Four ATPase sites were identified as occupied, with ADP modelled based on the density	
Nc1ncnc2c1ncn2[C@@H]1O[C@H](COP(=O)(O)OP(=O)(O)OP(=O)(O)O)[C@@H](O)[C@H]1O [ATP]			ATP can only be observed in the Orc4-Orc1, Orc5-4 and Orc3-5 nucleotide-binding sites
